Experimental findings from patent US9433621B2, “Substituted pyridine and pyrimidine derivatives and their use in treating viral infections” (Merck Sharp & Dohme Corp., priority 2010, dated 2016) are described below.

For this test, the system named is HCV replicon. The test can be described thus: Cell-Based HCV Replicon Assay. Particulars: Hepatitis C virus, 72 h; Table IV; replicon cells, day 3, real time PCR; EC90 = concentration for ΔCT=3.2 over baseline; read-out: EC90. On the procedure:
Cell-Based HCV Replicon Assay
To measure cell-based anti-HCV activity of the compounds of the present invention, replicon cells were seeded at 5000 cells/well in 96-well collagen I-coated Nunc plates in the presence of the compound of the invention. Various concentrations of a compound of the invention, typically in 10 serial 2-fold dilutions, were added to the assay mixture, the starting concentration of the compound ranging from 25 μM to 1 μM. The final concentration of DMSO was 0.5%, fetal bovine serum was 10%, in the assay media. Cells were harvested on day 3 by the addition of 1× cell lysis buffer (Ambion cat #8721). The replicon RNA level was measured using real time PCR (Taqman assay). The amplicon was located in 5B. The PCR primers were: 5B.2F, ATGGACAGGCGCCCTGA; 5B.2R, […]; the probe sequence was FAM-labeled CACGCCATGCGCTGCGG. GAPDH RNA was used as endogenous control and was amplified in the same reaction as NS5B (multiplex PCR) using primers and VIC-labeled probe recommended by the manufacturer (PE Applied Biosystem). The real-time RT-PCR reactions were run on ABI PRISM® 7900HT Sequence Detection System using the following program: 48′C for 30 min, 95′C for 10 min, 40 cycles of 95′C for 15 sec, 60′C for 1 min. The ΔCT values (CT5B-CTGAPDH) were plotted against the concentration of test compound and fitted to the sigmoid dose-response model using Graph Pad PRISM® software. EC50 was defined as the concentration of inhibitor necessary to achieve ΔCT=1 over the projected baseline; EC90 the concentration necessary to achieve ΔCT=3.2 over the baseline. Alternatively, to quantitate the absolute amount of replicon RNA, a standard curve was established by including serially diluted T7 transcripts of replicon RNA in the Taqman assay. All Taqman reagents were from PE Applied Biosystems. Such an assay procedure was described in detail in e.g. Malcolm et al., Antimicrobial Agents and Chemotherapy 50: 1013-1020 (2006).
HCV Replicon assay data for compounds of the invention that were tested were obtained using the above method.
For orientation: A replicon is a self-replicating genome or part of one, used to study replication in cells.

One may read the EC90 as the point of the concentration-response curve where the effect stands at 90%. Consider `CCOc1cc2cc(-c3c(C)nc(NCC4CC4)nc3N[C@@H]3C[C@H](C(C)(C)O)[C@@H](O)[C@H]3O)oc2c(C)n1` [Example 2511], for which the EC90 came to 130 nM.

In the case of `CO[C@H](C)CNc1nc(C)c(-c2nc3c(C)nccc3s2)c(N[C@@H]2C[C@H](C(C)(C)O)[C@@H](O)[C@H]2O)n1` [Example 3030], the EC90 is 104 nM.

As to `CO[C@@H](C)CNc1nc(C)c(-c2nc3c(C)nccc3s2)c(N[C@@H]2C[C@H](C(C)(C)O)[C@@H](O)[C@H]2O)n1` [Example 3031], the EC90 came out at 104 nM.

Regarding `Cc1nc(NCC2CC2)nc(N[C@@H]2C[C@H](C(F)F)[C@@H](O)[C@H]2O)c1-c1nc2c(C)nccc2s1` [Example 3036], the EC90 came to 44 nM.

On to `Cc1nc(NCC2CC2)nc(N[C@@H]2C[C@H](C(C)(F)F)[C@@H](O)[C@H]2O)c1-c1nc2c(C3CC3)nccc2s1` [Example 3056], for which the EC90 is 7 nM.

With `COC[C@@H](C)Nc1nc(C)c(-c2nc3c(C)nccc3s2)c(N[C@@H]2C[C@H](C(C)(C)O)[C@@H](O)[C@H]2O)n1` [Example 3137], the EC90 is 118 nM.

`CCC(O)(CC)[C@H]1C[C@@H](Nc2nc(NCC3CC3)nc(C)c2-c2nc3c(C)nccc3s2)[C@H](O)[C@@H]1O` [Example 3182]: the 90% effect concentration (EC90) is 68 nM.

For `Cc1nc(NCc2c(F)cc(F)cc2F)nc(N[C@@H]2C[C@H](C(C)(C)O)[C@@H](O)[C@H]2O)c1-c1nc2c(C)nccc2s1` [Example 3188], the EC90 was found to be 21 nM.

`Cc1nc(NCC2CC(F)(F)C2)nc(N[C@@H]2C[C@H](C(C)(C)O)[C@@H](O)[C@H]2O)c1-c1nc2c(C)nccc2s1` [Example 3239]: the EC90 amounted to 10 nM.

Turning to `Cc1cc2sc(-c3c(C)nc(NCc4c(F)cc(F)cc4F)nc3N[C@@H]3C[C@H](CO)[C@@H](O)[C@H]3O)nc2c(C)n1` [Example 3438], the EC90 was 11 nM.

In the case of `Cc1nc(NC2CCC2)nc(N[C@@H]2C[C@H](CS(C)(=O)=O)[C@@H](O)[C@H]2O)c1-c1nc2c(C3CC3)nccc2s1` [Example 3513], the EC90 turned out to be 54 nM.

Regarding `Cc1nc(NCc2c(F)cccc2F)nc(N[C@@H]2C[C@H](CS(C)(=O)=O)[C@@H](O)[C@H]2O)c1-c1nc2c(C3CC3)nccc2s1` [Example 3538], the 90% effect concentration (EC90) is 7 nM.

Turning to `Cc1nc(NCC2CC2)nc(N[C@@H]2C[C@H](CC(C)(C)O)[C@@H](O)[C@H]2O)c1-c1nc2c(C)nccc2s1` [Example 3552], the EC90 was 24 nM.

As for `Cc1nc(N[C@H](C)C2CC2)nc(N[C@@H]2C[C@H](CCO)[C@@H](O)[C@H]2O)c1-c1nc2c(C)nccc2s1` [Example 3561], the EC90 amounted to 23 nM.

In the case of `Cc1nc(NCc2c(F)cc(F)cc2F)nc(N[C@@H]2C[C@H](CS(C)(=O)=O)[C@@H](O)[C@H]2O)c1-c1nc2c(C3CC3)nccc2s1` [Example 3563], the EC90 was determined as 3 nM.

`Cc1nc(NCc2c(F)cccc2F)nc(N[C@@H]2C[C@H](CC#N)[C@@H](O)[C@H]2O)c1-c1nc2c(C3CC3)nccc2s1` [Example 3569]: the EC90 is 16 nM.

On to `Cc1nc(NCC2CC2)nc(N[C@@H]2C[C@H](CS(=O)(=O)c3ccncc3)[C@@H](O)[C@H]2O)c1-c1nc2c(C)nccc2s1` [Example 3580], for which the EC90 is 12 nM.

As to `CCOCCNc1nc(C)c(-c2nc3c(C4CC4)nccc3s2)c(N[C@@H]2C[C@H](CS(=O)(=O)CC)[C@@H](O)[C@H]2O)n1` [Example 3721], the EC90 stood at 24 nM.

Regarding `Cc1nc(NCC2CC2)nc(N[C@@H]2C[C@H](CS(=O)(=O)c3ccccc3)[C@@H](O)[C@H]2O)c1-c1nc2c(C3CC3)nccc2s1` [Example 3744], the concentration for an effect of 90% (EC90) came out at 44 nM.

As to `Cc1nc(NCc2c(F)cccc2F)nc(N[C@@H]2C[C@H](CS(=O)(=O)c3cc(F)cc(F)c3)[C@@H](O)[C@H]2O)c1-c1nc2c(C)nccc2s1` [Example 3754], the EC90 is 15 nM.

Regarding `CCNC(=O)C(O)[C@H]1C[C@@H](Nc2nc(N[C@H](C)COCC)nc(C)c2-c2nc3c(C)nccc3s2)[C@H](O)[C@@H]1O` (stereo partly drawn) [Example 4025], the EC90 was 8 nM.
